Results: article PMC4303209, “A novel phosphatidylinositol 3-kinase (PI3K) inhibitor directs a potent FOXO-dependent, p53-independent cell cycle arrest phenotype characterized by the differential induction of a subset of FOXO-regulated genes” (Breast Cancer Research : BCR, 2014)

System: MCF-7 breast cancer cells
Assay: Microarray gene expression analysis (Agilent whole human genome 4 x 44K; compound vs DMSO, LIMMA log2 fold change)
Type: cell-based
Settings: cell cycle genes

## Oc1cccc(-c2nc(N3CCOCC3)c3oc4ncccc4c3n2)c1 [PI-103]
Gene 51499
  TRIAP1 log2FC: -0.86
Gene 51514
  DTL log2FC: -0.14
Gene 51547
  SIRT7 log2FC: 0.32
Gene 51550
  CINP log2FC: -0.05
Gene 51659
  GINS2 log2FC: -0.80
Gene 53371
  NUP54 log2FC: 0.41
Gene 53918
  PELO log2FC: -0.59
Gene 54361
  WNT4 log2FC: -0.42
Gene 54443
  ANLN log2FC: 0.75
Gene 54461
  FBXW5 log2FC: 0.13
Gene 54478
  FAM64A log2FC: 0.10
Gene 54514
  DDX4 log2FC: -0.13
Gene 54766
  BTG4 log2FC: 0.11
Gene 54820
  NDE1 log2FC: 0.40
Gene 54888
  NSUN2 log2FC: -0.48
Gene 54902
  TTC19 log2FC: 0.67
Gene 54957
  TXNL4B log2FC: 0.28
Gene 54971
  BANP log2FC: 0.16
Gene 54998
  AURKAIP1 log2FC: -0.22
Gene 55023
  PHIP log2FC: 1.07
Gene 55031
  USP47 log2FC: 0.61
Gene 55055
  ZWILCH log2FC: 0.41
Gene 55124
  PIWIL2 log2FC: 0.06
Gene 55125
  CEP192 log2FC: 0.35
Gene 55143
  CDCA8 log2FC: -0.04
Gene 55159
  RFWD3 log2FC: -0.62
Gene 55165
  CEP55 log2FC: 0.99
Gene 55166
  CENPQ log2FC: 0.81
Gene 55183
  RIF1 log2FC: 0.39
Gene 55207
  ARL8B log2FC: 0.45
Gene 55213
  RCBTB1 log2FC: 0.71
Gene 55231
  CCDC87 log2FC: 0.15
Gene 55240
  STEAP3 log2FC: -0.44
Gene 55329
  MNS1 log2FC: 0.91
Gene 55388
  MCM10 log2FC: -0.91
Gene 55512
  SMPD3 log2FC: -0.27
Gene 55521
  TRIM36 log2FC: 0.64
Gene 55544
  RBM38 log2FC: -0.58
Gene 55615
  PRR5 log2FC: 0.45
Gene 55660
  PRPF40A log2FC: 1.01
Gene 55722
  CEP72 log2FC: 0.31
Gene 55743
  CHFR log2FC: -0.11
Gene 55746
  NUP133 log2FC: 0.25
Gene 55749
  CCAR1 log2FC: 0.55
Gene 55755
  CDK5RAP2 log2FC: 0.51
Gene 55795
  PCID2 log2FC: 0.32
Gene 55839
  CENPN log2FC: 0.30
Gene 55844
  PPP2R2D log2FC: -0.17
Gene 55869
  HDAC8 log2FC: -0.36
Gene 55872
  PBK log2FC: 0.46
Gene 55909
  BIN3 log2FC: -0.80
Gene 55914
  ERBB2IP log2FC: 1.07
Gene 55920
  RCC2 log2FC: -0.27
Gene 55958
  KLHL9 log2FC: 0.04
Gene 56159
  TEX11 log2FC: 0.000672
Gene 56165
  TDRD1 log2FC: 0.04
Gene 56288
  PARD3 log2FC: 0.46
Gene 56475
  RPRM log2FC: -0.24
Gene 56603
  CYP26B1 log2FC: 0.03
Gene 56907
  SPIRE1 log2FC: 0.10
Gene 56916
  SMARCAD1 log2FC: 0.55
Gene 56979
  PRDM9 log2FC: 0.0757
Gene 56992
  KIF15 log2FC: 1.30
Gene 57026
  PDXP log2FC: -0.93
Gene 57060
  PCBP4 log2FC: -0.27
Gene 57082
  CASC5 log2FC: 0.12
Gene 57092
  PCNP log2FC: 0.60
Gene 57122
  NUP107 log2FC: 0.63
Gene 57132
  CHMP1B log2FC: 0.39
Gene 57144
  PAK7 log2FC: 0.45
Gene 57325
  CSRP2BP log2FC: 0.27
Gene 57348
  TTYH1 log2FC: -0.09
Gene 57448
  BIRC6 log2FC: 0.14
Gene 57504
  MTA3 log2FC: 0.33
Gene 57531
  HACE1 log2FC: 0.51
Gene 57551
  TAOK1 log2FC: 0.40
Gene 57695
  USP37 log2FC: 0.38
Gene 57697
  FANCM log2FC: 0.48
Gene 57820
  CCNB1IP1 log2FC: 0.84
Gene 58480
  RHOU log2FC: 1.56
Gene 58495
  OVOL2 log2FC: 0.16
Gene 60370
  AVPI1 log2FC: 0.53
Gene 60561
  RINT1 log2FC: 0.44
Gene 63901
  FAM111A log2FC: 0.33
Gene 63946
  DMRTC2 log2FC: -0.00414
Gene 63967
  CLSPN log2FC: -0.11
Gene 64061
  TSPYL2 log2FC: -0.12
Gene 64180
  DPEP3 log2FC: 0.19
Gene 64326
  RFWD2 log2FC: -0.06
Gene 64946
  CENPH log2FC: 0.38
Gene 64975
  MRPL41 log2FC: -0.47
Gene 65123
  INTS3 log2FC: -0.18
Gene 65979
  PHACTR4 log2FC: 0.43
Gene 66037
  BOLL log2FC: -0.012
Gene 79003
  MIS12 log2FC: -0.76
Gene 79019
  CENPM log2FC: 0.04
Gene 79023
  NUP37 log2FC: 0.16
Gene 79027
  ZNF655 log2FC: 0.68
Gene 79172
  CENPO log2FC: -0.71
Gene 79733
  E2F8 log2FC: 0.23
Gene 79791
  FBXO31 log2FC: -0.10
Gene 79848
  CSPP1 log2FC: 0.57
Gene 79858
  NEK11 log2FC: 0.47
Gene 79884
  MAP9 log2FC: 1.08
Gene 79902
  NUP85 log2FC: 0.18
Gene 79959
  CEP76 log2FC: 0.32
Gene 80152
  CENPT log2FC: 0.00794
Gene 80174
  DBF4B log2FC: -0.40
Gene 80184
  CEP290 log2FC: 0.83
Gene 80254
  CEP63 log2FC: 0.71
Gene 80279
  CDK5RAP3 log2FC: 0.0271
Gene 80321
  CEP70 log2FC: 0.58
Gene 81027
  TUBB1 log2FC: -0.33
Gene 81565
  NDEL1 log2FC: -0.13
Gene 81610
  FAM83D log2FC: -0.15
Gene 81617
  CAB39L log2FC: 0.08
Gene 81669
  CCNL2 log2FC: -0.13
Gene 81928
  CABLES2 log2FC: -0.71
Gene 81930
  KIF18A log2FC: 1.18
Gene 83667
  SESN2 log2FC: -0.54
Gene 83852
  SETDB2 log2FC: 1.23
Gene 83903
  GSG2 log2FC: -0.50
Gene 83937
  RASSF4 log2FC: 0.14
Gene 84057
  MND1 log2FC: 0.59
Gene 84072
  HORMAD1 log2FC: 0.40
Gene 84101
  USP44 log2FC: 0.0155
Gene 84131
  CEP78 log2FC: 0.36
Gene 84296
  GINS4 log2FC: -0.47
Gene 84440
  RAB11FIP4 log2FC: 0.56
Gene 84445
  LZTS2 log2FC: 1.13
Gene 84446
  BRSK1 log2FC: 0.0146
Gene 84501
  SPIRE2 log2FC: 0.56
Gene 84612
  PARD6B log2FC: 0.88
Gene 84687
  PPP1R9B log2FC: -0.13
Gene 84690
  SPATA22 log2FC: 0.0637
Gene 84707
  BEX2 log2FC: 0.83
Gene 84722
  PSRC1 log2FC: 0.36
Gene 84861
  KLHL22 log2FC: 0.21
Gene 84897
  TBRG1 log2FC: 0.08
Gene 84930
  MASTL log2FC: 0.43
Gene 84967
  LSM10 log2FC: -1.02
Gene 85417
  CCNB3 log2FC: 0.31
Gene 85444
  LRRCC1 log2FC: 0.61
Gene 85458
  DIXDC1 log2FC: 0.018
Gene 87178
  PNPT1 log2FC: -0.10
Gene 89782
  LMLN log2FC: 0.82
Gene 90293
  KLHL13 log2FC: 0.07
Gene 90480
  GADD45GIP1 log2FC: -0.25
Gene 91607
  SLFN11 log2FC: -0.61
Gene 91687
  CENPL log2FC: -0.11
Gene 91768
  CABLES1 log2FC: 1.68
Gene 93426
  SYCE1 log2FC: -0.08
Gene 93973
  ACTR8 log2FC: 0.12
Gene 94241
  TP53INP1 log2FC: 0.89
Gene 113130
  CDCA5 log2FC: 0.0109
Gene 114791
  TUBGCP5 log2FC: 0.12
